The target in one assay is T1, OX1 (Homo sapiens, UniProt O43613).
T1 construct: expressed in transfected cells; host or cells: CHO (CHO-OX1)
T1 sequence (O43613 1-425): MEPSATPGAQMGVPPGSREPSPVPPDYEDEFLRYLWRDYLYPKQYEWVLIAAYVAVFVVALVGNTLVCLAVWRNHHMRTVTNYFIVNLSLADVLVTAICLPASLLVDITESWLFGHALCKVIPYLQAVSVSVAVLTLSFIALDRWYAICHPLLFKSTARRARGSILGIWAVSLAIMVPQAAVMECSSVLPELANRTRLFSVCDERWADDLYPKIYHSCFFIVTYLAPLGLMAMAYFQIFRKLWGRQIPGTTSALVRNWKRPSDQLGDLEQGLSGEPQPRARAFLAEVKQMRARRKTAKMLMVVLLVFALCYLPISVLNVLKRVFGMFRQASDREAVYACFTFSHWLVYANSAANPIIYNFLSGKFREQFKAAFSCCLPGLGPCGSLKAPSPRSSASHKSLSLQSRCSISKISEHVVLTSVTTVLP
Kind of assay: Orexin receptor cell-based functional assay, [Ca2+]i by FLIPR, CHO-OX1 cells. Particulars: FLIPR calcium, antagonism of EC90 of [OX], read-out: OXI, IC50.

The next assay deals with T2, OX2 (Homo sapiens, UniProt O43614).
T2 construct: expressed in transfected cells; host or cells: CHO (CHO-OX2)
T2 sequence (O43614 1-444): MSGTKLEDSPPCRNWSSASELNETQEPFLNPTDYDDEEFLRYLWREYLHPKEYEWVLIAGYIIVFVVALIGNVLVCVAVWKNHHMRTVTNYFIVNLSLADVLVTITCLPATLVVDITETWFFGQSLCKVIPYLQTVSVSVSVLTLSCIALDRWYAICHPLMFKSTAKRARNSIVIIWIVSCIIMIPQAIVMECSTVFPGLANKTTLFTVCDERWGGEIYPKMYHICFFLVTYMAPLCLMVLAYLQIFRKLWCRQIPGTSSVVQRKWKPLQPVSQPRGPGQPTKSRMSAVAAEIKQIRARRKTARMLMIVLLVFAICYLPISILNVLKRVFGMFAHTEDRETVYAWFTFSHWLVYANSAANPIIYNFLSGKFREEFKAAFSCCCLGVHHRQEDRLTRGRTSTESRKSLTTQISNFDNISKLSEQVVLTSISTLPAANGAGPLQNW
The assay is described as follows: Orexin receptor cell-based functional assay, [Ca2+]i by FLIPR, CHO-OX2 cells. Conditions: FLIPR calcium, antagonism of EC90 of [OX]. The method, boiled down:
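CHO cells expressing human OX1 or OX2 (20,000/well, grown overnight) were loaded with Calcium6 dye plus 2.5 mM probenecid for 2 h at 37 °C, then preincubated 30 min with compound (0.1 nM–10 µM). FLIPR fluorescence (ex 488/em 540 nm) was tracked before and after an EC90 orexin challenge.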

The structures appear in SMILES notation.

Usually IC50 stands for the point on the concentration scale where inhibition reaches its midpoint. As for `Cc1cc(C(=O)N2CC(F)(F)C[C@@H](C)[C@H]2CNc2ncc(Cl)cn2)c(-c2ccccn2)s1` [Compound 92], the IC50 was 24 nM at OX1 and over 5000 nM on OX2.
For `C[C@@H]1CC(F)(F)CN(C(=O)c2cc(Cl)ccc2-c2nnn(C)n2)[C@@H]1COc1ccc(C(F)(F)F)cn1` [Compound 216, (5-chloro-2-(2-methyl-2H-tetrazol-5-yl)phenyl)((2S,3R)-5,5-difluoro-3-methyl-2-(((5-(trifluoromethyl)pyridin-2-yl)oxy)methyl)piperidin-1-yl)methanone], the IC50 was 4 nM at OX1 and over 5000 nM on OX2.
With `Cc1cc(C(=O)N2CC(F)(F)C[C@@H](C)[C@H]2CNc2ncc(C(F)(F)F)cn2)c(-c2ccccn2)s1` [Compound 91], the IC50 on OX1 is 7 nM; on OX2 it was over 5000 nM.
In the same order, the values of `C[C@@H]1CC(F)(F)CN(C(=O)c2cc(C#N)ccc2-c2ccc(F)cc2)[C@@H]1CNc1ncc(Cl)cn1` [Compound 53] are 29 nM and over 5000 nM.
The corresponding values for `C[C@@H]1CC(F)(F)CN(C(=O)c2cc(Cl)ccc2-n2ncnn2)[C@@H]1CNc1ncc(C(F)(F)F)cn1` [Compound 4] are 81 nM and over 5000 nM.
The corresponding values for `Cc1ccc(-n2nccn2)c(C(=O)N2CC(F)(F)C[C@@H](C)[C@H]2CNc2ncc(C(F)(F)F)cn2)c1` [Compound 5] are 10 nM and over 5000 nM.
In the case of `C[C@@H]1CC(F)(F)CN(C(=O)c2cc(Cl)ccc2-c2ncccn2)[C@@H]1CNc1ncc(Cl)cn1` [Compound 57, (5-chloro-2-(pyrimidin-2-yl)phenyl)((2S,3R)-2-(((5-chloropyrimidin-2-yl)amino)methyl)-5,5-difluoro-3-methylpiperidin-1-yl)methanone], the IC50 was 24 nM at OX1 and over 5000 nM at OX2.
The corresponding values for `C[C@@H]1CC(F)(F)CN(C(=O)c2cc(Cl)ccc2-c2nnn(C)n2)[C@@H]1CNc1cnc(C(F)(F)F)cn1` [Compound 161] are 9 nM and over 5000 nM.
In the same order, the values of `C[C@@H]1CC(F)(F)CN(C(=O)c2nn(C)cc2-c2cccc(C(F)(F)F)n2)[C@@H]1CNc1ncc(C(F)(F)F)cn1` [Compound 229, ((2S,3R)-5,5-difluoro-3-methyl-2-(((5-(trifluoromethyl)pyrimidin-2-yl)amino)methyl)piperidin-1-yl)(1-methyl-4-(6-(trifluoromethyl)pyridin-2-yl)-1H-pyrazol-3-yl)methanone] are 7 nM and over 5000 nM.
In the same order, the values of `Cc1ccc(-c2ccccc2)c(C(=O)N2CC(F)(F)C[C@@H](C)[C@H]2CNc2ncc(Cl)cn2)n1` [Compound 52] are 9 nM and over 5000 nM.
As to `C[C@@H]1CC(F)(F)CN(C(=O)c2nn(C)cc2-c2ncccn2)[C@@H]1CNc1ccc(C(F)(F)F)cn1` [Compound 200, ((2S,3R)-5,5-difluoro-3-methyl-2-(((5-(trifluoromethyl)pyridin-2-yl)amino)methyl)piperidin-1-yl)(1-methyl-4-(pyrimidin-2-yl)-1H-pyrazol-3-yl)methanone], the IC50 at OX1 was 4 nM; on OX2, over 5000 nM.
The corresponding values for `C[C@@H]1CC(F)(F)CN(C(=O)c2cc(F)ccc2-c2nnn(C)n2)[C@@H]1CNc1ncc(C(F)(F)F)cn1` [Compound 252, ((2S,3R)-5,5-difluoro-3-methyl-2-(((5-(trifluoromethyl)pyrimidin-2-yl)amino)methyl)piperidin-1-yl)(5-fluoro-2-(2-methyl-2H-tetrazol-5-yl)phenyl)methanone] are 8 nM and over 5000 nM.
As for `C[C@@H]1CC(F)(F)CN(C(=O)c2cnn(C)c2-c2ccccn2)[C@@H]1CNc1ncc(Cl)cn1` [Compound 96], the IC50 at OX1 is over 1000 nM; on OX2 it was over 5000 nM.
The corresponding values for `Cc1ccc(-c2nnn(C)n2)c(C(=O)N2CC(F)(F)C[C@@H](C)[C@H]2CNc2ncc(Cl)cn2)c1` [Compound 9] are 6 nM and over 5000 nM.

The values are drawn from patent US12084437B2, “Halo-substituted piperidines as orexin receptor modulators” (AstraZeneca AB, priority 2016, dated 2024).
